Test system: serotonin in terminal areas
Assay: microdialysis experiments (level of serotonin in terminal areas)
Format: in vivo
Settings: administration of agomelatine alone
From the text: Administration of agomelatine alone causes no increase in serotonin levels as measured in microdialysis experiments.

SMILES: COc1ccc2cccc(CCNC(C)=O)c2c1 [agomelatine]
- serotonin levels as measured in microdialysis experiments: no increase
